In ChEMBL document CHEMBL4406882, “The plant-derived chalcone Xanthoangelol targets the membrane of Gram-positive bacteria” (Bioorg Med Chem, 2019):
Converted amounts (≈) assume the structure as drawn. The source made the active and inactive calls. The rule behind the calls is not given here.

Legend:
Staphylococcus aureus [1] = assay: Induction of membrane integrity impairment in methicillin resistant Staphylococcus aureus Mu50 assessed as increase in release of ATP at 1 to 16 times MIC incubated for 1 hr by BacTiter-Glo Assay; type: functional, organism-based
[2] = Selectivity index, ratio of IC50 for human HEK293 cells to MIC90 for methicillin-resistant Staphylococcus aureus ATCC 700699; type: toxicity; conditions: read-out: Selectivity Index
Bacillus subtilis [3] = assay: Induction of PdhA protein expression in Bacillus subtilis 168 at 2.3 uM incubated for 15 mins by 35S-methionine pulse labeling based 2D-PAGE analysis; type: functional, organism-based
Bacillus subtilis [4] = assay: Induction of TrxA protein expression in Bacillus subtilis 168 at 2.3 uM incubated for 15 mins by 35S-methionine pulse labeling based 2D-PAGE analysis; type: functional, organism-based
[5] = Selectivity index, ratio of IC50 for human THP1 cells to MIC90 for methicillin-resistant Staphylococcus aureus ATCC 700699; type: toxicity; conditions: read-out: Selectivity Index
Bacillus subtilis [6] = assay: Induction of SufD protein expression in Bacillus subtilis 168 at 2.3 uM incubated for 15 mins by 35S-methionine pulse labeling based 2D-PAGE analysis; type: functional, organism-based
Pseudomonas aeruginosa = assay: Antibacterial activity against Pseudomonas aeruginosa ATCC 27853 by broth micro dilution method; type: functional
[7] = (§1) Cytotoxicity against human HepG2 cells assessed as reduction in cell viability incubated for 48 hrs by resazurin reagent based assay; conditions: human, HepG2 cells
HepG2 = assay: as §1; conditions: Homo sapiens, HepG2, 48 h
Bacillus subtilis [8] = assay: Induction of ClpP protein expression in Bacillus subtilis 168 at 2.3 uM incubated for 15 mins by 35S-methionine pulse labeling based 2D-PAGE analysis; type: functional, organism-based
Bacillus subtilis [9] = assay: Induction of LiaH.2 protein expression in Bacillus subtilis 168 at 2.3 uM incubated for 15 mins by 35S-methionine pulse labeling based 2D-PAGE analysis; type: functional, organism-based
Bacillus subtilis [10] = assay: Induction of FabG protein expression in Bacillus subtilis 168 at 2.3 uM incubated for 15 mins by 35S-methionine pulse labeling based 2D-PAGE analysis; type: functional, organism-based
Bacillus subtilis [11] = assay: Induction of LiaH.1 protein expression in Bacillus subtilis 168 at 2.3 uM incubated for 15 mins by 35S-methionine pulse labeling based 2D-PAGE analysis; type: functional, organism-based
[12] = (§2) Cytotoxicity against human HEK293 cells assessed as reduction in cell viability incubated for 48 hrs by resazurin reagent based assay; conditions: human, HEK293 cells
HEK293 = assay: as §2; conditions: Homo sapiens, HEK293, 48 h
Bacillus subtilis [13] = assay: Induction of YuaE protein expression in Bacillus subtilis 168 at 2.3 uM incubated for 15 mins by 35S-methionine pulse labeling based 2D-PAGE analysis; type: functional, organism-based
Enterococcus faecalis = assay: Antibacterial activity against Enterococcus faecalis ATCC 35667 by broth micro dilution method; type: functional
Bacillus subtilis [14] = assay: Induction of GroEL.3 protein expression in Bacillus subtilis 168 at 2.3 uM incubated for 15 mins by 35S-methionine pulse labeling based 2D-PAGE analysis; type: functional, organism-based
Bacillus subtilis [15] = assay: Induction of MenB protein expression in Bacillus subtilis 168 at 2.3 uM incubated for 15 mins by 35S-methionine pulse labeling based 2D-PAGE analysis; type: functional, organism-based
[16] = (§3) Cytotoxicity against human THP1 cells assessed as reduction in cell viability incubated for 48 hrs by resazurin reagent based assay; parameters: species or system THP-1; conditions: human, THP1 cells
THP-1 = assay: as §3; conditions: Homo sapiens, THP-1, 48 h
Staphylococcus aureus [17] = assay: Antibacterial activity against mid-exponential growth phase of methicillin-resistant Staphylococcus aureus ATCC 700699 assessed as increase in cell lysis at 12.5 to 25 uM; type: functional, organism-based
Bacillus subtilis [18] = assay: Induction of HisG protein expression in Bacillus subtilis 168 at 2.3 uM incubated for 15 mins by 35S-methionine pulse labeling based 2D-PAGE analysis; type: functional, organism-based
Erythrocyte = assay: Hemolytic activity against human erythrocytes at =>100 uM measured up to 24 hrs; type: ADME, cell-based
Staphylococcus aureus [19] = assay: Induction of membrane integrity impairment in methicillin resistant Staphylococcus aureus Mu50 harboring GFP reporter plasmid assessed as increase in release of GFP at 1 to 16 times MIC incubated for 3 to 6 hrs by […]; type: functional, organism-based
Bacillus subtilis [20] = assay: Induction of Cah protein expression in Bacillus subtilis 168 at 2.3 uM incubated for 15 mins by 35S-methionine pulse labeling based 2D-PAGE analysis; type: functional, organism-based
Acinetobacter baumannii = assay: Antibacterial activity against Acinetobacter baumannii ATCC BAA-747 by broth micro dilution method; type: functional
Staphylococcus aureus [21] = assay: Antibacterial activity against methicillin-resistant Staphylococcus aureus ATCC 700699 by broth micro dilution method; type: functional
Bacillus subtilis [22] = assay: Induction of YqjE protein expression in Bacillus subtilis 168 at 2.3 uM incubated for 15 mins by 35S-methionine pulse labeling based 2D-PAGE analysis; type: functional, organism-based
Bacillus subtilis [23] = assay: Induction of Hom protein expression in Bacillus subtilis 168 at 2.3 uM incubated for 15 mins by 35S-methionine pulse labeling based 2D-PAGE analysis; type: functional, organism-based
[24] = Selectivity index, ratio of IC50 for human CLS54 cells to MIC90 for methicillin-resistant Staphylococcus aureus ATCC 700699; type: toxicity; conditions: read-out: Selectivity Index
[25] = Selectivity index, ratio of IC50 for human HepG2 cells to MIC90 for methicillin-resistant Staphylococcus aureus ATCC 700699; type: toxicity; conditions: read-out: Selectivity Index
Bacillus subtilis [26] = assay: Induction of YkgB protein expression in Bacillus subtilis 168 at 2.3 uM incubated for 15 mins by 35S-methionine pulse labeling based 2D-PAGE analysis; type: functional, organism-based
Bacillus subtilis [27] = assay: Induction of PpaC protein expression in Bacillus subtilis 168 at 2.3 uM incubated for 15 mins by 35S-methionine pulse labeling based 2D-PAGE analysis; type: functional, organism-based
Bacillus subtilis [28] = assay: Induction of HisI protein expression in Bacillus subtilis 168 at 2.3 uM incubated for 15 mins by 35S-methionine pulse labeling based 2D-PAGE analysis; type: functional, organism-based
[29] = (§4) Cytotoxicity against human MRC5 cells assessed as reduction in cell viability incubated for 48 hrs by resazurin reagent based assay; conditions: human, MRC5 cells
MRC5 = assay: as §4; conditions: Homo sapiens, MRC5, 48 h

In the case of CC(C)=CCC/C(C)=C/Cc1c(O)ccc(C(=O)/C=C/c2ccc(O)cc2)c1O [XANTHOANGELOL], the Activity (Staphylococcus aureus [1]) is reported as “Active”, the selectivity ratio [2] is reported as 16.2 and the Activity (Bacillus subtilis [3]) is reported as “Active”. The Activity (Bacillus subtilis [4]) was “Active”, the selectivity ratio [5] was 17.7 and the Activity (Bacillus subtilis [6]) was “Active”. For the same molecule, the MIC (Pseudomonas aeruginosa) was > 100 µM, the IC90 at 48 h [7] was 37.4 µM and the IC50 (HepG2) was 13.7 µM. The Activity (Bacillus subtilis [8]) was “Active”, the Activity (Bacillus subtilis [9]) was “Active” and the Activity (Bacillus subtilis [10]) was “Active”. The Activity (Bacillus subtilis [11]) was “Active”, the IC90 at 48 h [12] was 44.8 µM and the IC50 (HEK293) was 21.5 µM. For the same molecule, the Activity (Bacillus subtilis [13]) was “Active”, the MIC (Enterococcus faecalis) was 12.5 µM (≈ 4.91 µg/mL) and the Activity (Bacillus subtilis [14]) was “Active”. The Activity (Bacillus subtilis [15]) was “Active”, the IC90 at 48 h [16] was 39.1 µM and the IC50 (THP-1) was 23.6 µM. The Activity (Staphylococcus aureus [17]) was “Active”, the Activity (Bacillus subtilis [18]) was “Active” and the Activity (Erythrocyte) was “Toxic”. The Activity (Staphylococcus aureus [19]) was “Active”, the Activity (Bacillus subtilis [20]) was “Active” and the MIC (Acinetobacter baumannii) was > 100 µM. For the same molecule, the MIC (Staphylococcus aureus [21]) was 3.12 µM (≈ 1.23 µg/mL), the MIC50 (Staphylococcus aureus [21]) was 0.96 µM (≈ 0.377 µg/mL) and the MIC90 (Staphylococcus aureus [21]) was 1.33 µM (≈ 0.522 µg/mL). For the same molecule, the Activity (Bacillus subtilis [22]) was “Active”, the Activity (Bacillus subtilis [23]) was “Active” and the selectivity ratio [24] was 44.2. For the same molecule, the selectivity ratio [25] was 10.3, the Activity (Bacillus subtilis [26]) was “Active” and the Activity (Bacillus subtilis [27]) was “Active”. For the same molecule, the Activity (Bacillus subtilis [28]) was “Active”, the IC90 at 48 h [29] was 27.6 µM and the IC50 (MRC5) was 21.7 µM.
